Experiments:
ECHCG = assay: Herbicidal pre-emergence action - Part II; assay type: in vivo, Echinochloa crus-galli
Description: (§1) Seeds of mono- and dicotyledonous weed plants and crop plants were sown, in plastic or organic planting pots, in sandy loam and covered with soil. The compounds according to the invention, formulated in the form of wettable powders (WP) or as emulsifiable concentrates (EC), were applied to the surface of the covering soil as aqueous suspension or emulsion, with the addition of 0.5% of an additive, at an application rate of 600 1 of water/ha (converted). Following treatment, the pots were placed in a greenhouse and kept under optimum growth conditions for the test plants. The visual grading of the damage to the test plants was carried out after ca. 3 weeks in comparison to untreated controls (herbicidal effect in percent (%): 100% effect = plants have died off, 0% effect = as control plants). Tables C1 to C12 below show the effects of selected compounds of the general formula (I) according to table 1 on various harmful plants and an application rate corresponding to 320 g/ha or below obtained by the experimental procedure mentioned above. Table C1: pre-emergence activity at 320g/ha against ABUTH in %

BRSNW = assay: Post-emergence effects on crop plants; assay type: in vivo, Brassica napus; conditions: crop plant
Description: Seeds of mono- and dicotyledonous weed plants and crop plants were sown, in plastic or organic planting pots, in sandy loam, covered with soil and grown in a greenhouse under controlled growth conditions. 2 to 3 weeks after sowing, the test plants were sprayed in the single-leaf stage. The compounds according to the invention, formulated in form of wettable powders (WP) or as emulsifiable concentrates (EC), were sprayed onto the green plant parts as aqueous suspension or emulsion, with the addition of 0.5% of an additive, at an application rate of 600 1 of water/ha (converted). The test plants were placed in the greenhouse for ca. 3 weeks under optimum growth conditions, and then the effect of the preparations was assessed visually in comparison with untreated controls (herbicidal effect in percent (%): 100% effect = plants have died off, 0% effect = as control plants). Tables F1 to F5 below show the effects of selected compounds of the general formula (I) according to table 1 on various crop plants and an application rate corresponding to 320 g/ha or below obtained by the experimental procedure mentioned above. Table […]: post-emergence activity at 5g/ha against ZEAMX in %

SETVI [1] = assay: Herbicidal pre-emergence action - Part I; assay type: in vivo, Setaria viridis; conditions: visual grading after ca. 3 weeks vs untreated controls
In short: (§2)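 Weed seeds sown in sandy loam pots (one mono- and one dicot species per pot) and covered with soil; compounds as WP or EC applied to covering soil surface as aqueous suspension/emulsion with 0.5% additive at 600 l water/ha, rates 1280 g/ha or below. Greenhouse; visual damage rated after ca. 3 weeks vs untreated (0–100%).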

AMARE [2] = assay: Herbicidal pre-emergence action - Part II; assay type: in vivo, Amaranthus retroflexus; conditions: visual grading after ca. 3 weeks vs untreated controls
Description: as §1

STEME = assay: Herbicidal pre-emergence action - Part I; assay type: in vivo, Stellaria media; conditions: visual grading after ca. 3 weeks vs untreated controls
In short: as §2

KCHSC = assay: Herbicidal pre-emergence action - Part I; assay type: in vivo, Kochia scoparia; conditions: 1280 g/ha
In short: as §2

SETVI [3] = assay: Herbicidal pre-emergence action - Part II; assay type: in vivo, Setaria viridis
Description: as §1

AMARE [4] = assay: Herbicidal pre-emergence action - Part I; assay type: in vivo, Amaranthus retroflexus; conditions: for pre-emergence activity at 320g/ha against AMARE in % / pre-emergence activity at 1280g/ha against AMARE in %: visual grading after ca. 3 weeks vs untreated controls
In short: as §2

TRZAS = assay: Pre-emergence effects on crop plants; assay type: in vivo, Triticum aestivum; conditions: crop plant
Description: Seeds of mono- and dicotyledonous weed plants and crop plants were sown, in plastic or organic planting pots, in sandy loam and covered with soil. The compounds according to the invention, formulated in the form of wettable powders (WP) or as emulsifiable concentrates (EC), were applied to the surface of the covering soil as aqueous suspension or emulsion, with the addition of 0.5% of an additive, at an application rate of 600 1 of water/ha (converted). Following treatment, the pots were placed in a greenhouse and kept under optimum growth conditions for the test plants. The visual grading of the damage to the test plants was carried out after ca. 3 weeks in comparison to untreated controls (herbicidal effect in percent (%): 100% effect = plants have died off, 0% effect = as control plants). Tables D1 to D5 below show the effects of various compounds of the general formula (I) according to Table 1 on various crop plants and an application rate corresponding to 320 g/ha or below obtained by the experimental procedure mentioned above in Biological Examples, Section C. Table […]: pre-emergence activity at 320g/ha against ZEAMX in %

DIGSA = assay: Herbicidal pre-emergence action - Part II; assay type: in vivo, Digitaria sanguinalis
Description: as §1

[5] = 80 g/ha, table titled F4c (BRSNW)
[6] = Table A10a, visual grading after ca. 3 weeks vs untreated controls

Structure (SMILES)	pre-emergence activity against ECHCG (ECHCG; 320 g/ha, Table C6a) [%]	post-emergence activity against BRSNW (BRSNW; [5]) [%]	pre-emergence activity at 320g/ha and against SETVI in % (SETVI [1]) [%]	pre-emergence activity at 1280g/ha and against SETVI in % (SETVI [1]) [%]	pre-emergence activity at 320g/ha against AMARE in % (AMARE [2]) [%]	pre-emergence activity at 320g/ha against STEME in % (STEME) [%]	pre-emergence activity at 1280g/ha against STEME in % (STEME) [%]	pre-emergence activity at 1280g/ha against KCHSC in % (KCHSC; 504 h) [%]	pre-emergence activity at 1280g/ha against KCHSC in % (KCHSC; [6]) [%]	pre-emergence activity against SETVI (SETVI [3]; 320 g/ha, Table C10a) [%]	pre-emergence activity at 320g/ha against AMARE in % (AMARE [4]) [%]	pre-emergence activity at 1280g/ha against AMARE in % (AMARE [4]) [%]	pre-emergence activity against TRZAS (TRZAS; 80 g/ha, Table D2b) [%]	pre-emergence activity against DIGSA (DIGSA; 320 g/ha, Table C5a) [%]	further results
Cc1ccsc1C1=NOC2(CCCN(Cc3c(F)cccc3F)C2=O)C1 (racemic) [Compound I-2]	100	10	100	100	90	90	90	90	90	100	90	90	0	100	pre-emergence activity against ECHCG (ECHCG; 80 g/ha, Table C6b): 90%; pre-emergence activity at 80g/ha and against SETVI in % (SETVI [1]; 80 g/ha): 100%; pre-emergence activity at 80g/ha against STEME in % (STEME; 80 g/ha): 90%; pre-emergence activity against SETVI (SETVI [3]; 80 g/ha, Table C10b): 100%; pre-emergence activity against DIGSA (DIGSA; 80 g/ha, Table C5b): 90%
O=C1N(Cc2ccccc2F)CCC12CC(c1c(F)cccc1F)=NO2 (racemic) [Compound I-10]	90	0	90	100	80	90	90	90	90	90	90	90	0	90	pre-emergence activity at 80g/ha against AMARE in % (AMARE [4]; 80 g/ha, 504 h): 90%
Cc1ccsc1C1=NOC2(CCN(Cc3c(F)cccc3F)C2=O)C1 (racemic) [Compound I-16, 7-(2,6-Difluorobenzyl)-3-(3-methyl-2-thienyl)-1-oxa-2,7-diazaspiro[4.4]non-2-en-6-one]	90	0	100	100	80		90		90	90	90	90	10	80	post-emergence activity against BRSNW (BRSNW; table titled F4d (BRSNW), title: 320 g/ha, application rate: 80 g/ha): 0%; pre-emergence activity against TRZAS (TRZAS; Table D2a, title: 320g/ha, application rate: 80 g/ha): 10%
